Measurements: patent US20080293749A1, “Pyrrolidine(thi)ones Substituted by Heterocyclic Substituents in The 3-Position” (Gruenenthal GmbH, priority 2005, published 2008)
Converted amounts (≈) assume the structure as drawn.

System: not given
Experiment: not given
Conditions: not given

Compared with `O=C1CC(N2C=Nc3c(Cl)cc(Cl)cc3C2)C(=O)N1` (stereo not drawn) [Example 8e, 3-(6,8-dichloro-4H-quinazolin-3-yl)-pyrrolidine-2,5-dione], `O=C1CC(N2C=Nc3c(Cl)cccc3C2)C(=O)N1` (stereo not drawn) [Example 8j, 3-(8-chloro-4H-quinazolin-3-yl)-pyrrolidine-2,5-dione] is lower in melting point: 230 to 232 °C for the first, 194 °C for the second.

Compared with `O=C1CC(N2C=Nc3ccc([N+](=O)[O-])cc3C2)C(=O)N1` (stereo not drawn) [Example 8f, 3-(6-nitro-4H-quinazolin-3-yl)-pyrrolidine-2,5-dione], `O=C1CC(N2C=Nc3cc([N+](=O)[O-])ccc3C2)C(=O)N1` (stereo not drawn) [Example 8h, 3-(7-nitro-4H-quinazolin-3-yl)-pyrrolidine-2,5-dione] is higher in melting point: 168 to 172 °C for the first, 212 to 225 °C for the second.

First: Cc1cc(Br)c2c(c1)CN(C1CC(=O)NC1=O)C=N2 (stereo not drawn) [Example 8i, 3-(8-bromo-6-methyl-4H-quinazolin-3-yl)-pyrrolidine-2,5-dione]
Second: CC1=Nc2c(Br)cc(C)cc2CN1C1CC(=O)NC1=O (stereo not drawn) [Example 15ff, 3-(8-bromo-2,6-dimethyl-4H-quinazolin-3-yl)-pyrrolidine-2,5-dione]
The melting point of the first is higher: 240 to 241 °C for the first, 145 to 150 °C for the second.

Compared with `COc1cccc2c1N=CN(C1CC(=O)NC1=O)C2` (stereo not drawn) [Example 8k, 3-(8-methoxy-4H-quinazolin-3-yl)-pyrrolidine-2,5-dione], `O=C1CC(N2C=Nc3c(cccc3C(F)(F)F)C2)C(=O)N1` (stereo not drawn) [Example 11c, 3-(8-trifluoromethyl-4H-quinazolin-3-yl)-pyrrolidine-2,5-dione] is lower in melting point: 195 to 200 °C for the first, 188 to 190 °C for the second.

First: O=C1CC(N2C=Nc3ccc(OCc4ccccc4)cc3C2)C(=O)N1 (stereo not drawn) [Example 8l, 3-(6-benzyloxy-4H-quinazolin-3-yl)-pyrrolidine-2,5-dione]
Second: CC1=Nc2ccc(OCc3ccccc3)cc2CN1C1CC(=O)NC1=O (stereo not drawn) [Example 15x, 3-(6-benzyloxy-2-methyl-4H-quinazolin-3-yl)-pyrrolidine-2,5-dione]
The melting point of the first is higher: 171 to 173 °C for the first, 132 to 143 °C for the second.

First: O=C1CC(N2C=Nc3ccc(Cl)c(Cl)c3C2)C(=O)N1 (stereo not drawn) [Example 9a, 3-(5,6-dichloro-4H-quinazolin-3-yl)-pyrrolidine-2,5-dione]
Second: CC1=Nc2ccc(Cl)c(Cl)c2CN1C1CC(=O)NC1=O (stereo not drawn) [Example 15c, 3-(5,6-dichloro-2-methyl-4H-quinazolin-3-yl)-pyrrolidine-2,5-dione]
The melting point of the first is higher: 174 to 178 °C for the first, 161 to 166 °C for the second.

First: COc1cc2c(cc1OC)N=CN(C1CC(=O)NC1=O)C2 (stereo not drawn) [Example 10b, 3-(6,7-dimethoxy-4H-quinazolin-3-yl)-pyrrolidine-2,5-dione]
Second: COc1cc2c(cc1OC)N=C(C)N(C1CC(=O)NC1=O)C2 (stereo not drawn) [Example 15v, 3-(6,7-dimethoxy-2-methyl-4H-quinazolin-3-yl)-pyrrolidine-2,5-dione]
The melting point of the first is lower: 189 to 200 °C for the first, 200 to 202 °C for the second.

First: CN1C(=O)CC(N2C=Nc3ccccc3C2)C1=O (stereo not drawn) [Example 11d, 1-methyl-3-(4H-quinazolin-3-yl)-pyrrolidine-2,5-dione]
Second: CN1C(=O)CC(N2C=Nc3cc(F)ccc3C2)C1=O (stereo not drawn) [Example 11e, 7-fluoro-1-methyl-3-(4H-quinazolin-3-yl)-pyrrolidine-2,5-dione]
The melting point of the first is lower: 163 to 164 °C for the first, 191 to 193 °C for the second.

First: CCOc1cccc2c1CN(C1CC(=O)NC1=O)C=N2 (stereo not drawn) [Example 12b, 3-(5-ethoxy-4H-quinazolin-3-yl)-pyrrolidine-2,5-dione]
Second: COCCOc1cccc2c1CN(C1CC(=O)NC1=O)C=N2 (stereo not drawn) [Example 12f, 3-(5-(2-methoxyethoxy)-4H-quinazolin-3-yl)-pyrrolidine-2,5-dione]
The melting point of the first is lower: 203 to 205 °C for the first, 288 to 290 °C for the second.

`CCCCCOc1cccc2c1CN(C1CC(=O)NC1=O)C=N2` (stereo not drawn) [Example 12c, 3-(5-pentyloxy-4H-quinazolin-3-yl)-pyrrolidine-2,5-dione] and `CCCCCOc1cccc2c1CN(C1CC(=O)NC1=O)C(C)=N2` (stereo not drawn) [Example 15q, 3-(2-methyl-5-pentyloxy-4H-quinazolin-3-yl)-pyrrolidine-2,5-dione] cannot be ordered by melting point: 154 to 160 °C for the first, 154 to 156 °C for the second.

First: O=C1CC(N2C=Nc3cccc(OCc4ccccc4)c3C2)C(=O)N1 (stereo not drawn) [Example 12d, 3-(5-benzyloxy-4H-quinazolin-3-yl)-pyrrolidine-2,5-dione]
Second: CC(C)Oc1cccc2c1CN(C1CC(=O)NC1=O)C=N2 (stereo not drawn) [Example 12e, 3-(5-isopropoxy-4H-quinazolin-3-yl)-pyrrolidine-2,5-dione]
The melting point of the first is lower: 100 to 108 °C for the first, 191 to 192 °C for the second.

`CC1=Nc2cc(C(F)(F)F)ccc2CN1C1CC(=O)NC1=O` (stereo not drawn) [Example 15aa, 3-(2-methyl-7-trifluoromethyl-4H-quinazolin-3-yl)-pyrrolidine-2,5-dione] and `CC1=Nc2cc([N+](=O)[O-])ccc2CN1C1CC(=O)NC1=O` (stereo not drawn) [Example 15ee, 3-(2-methyl-7-nitro-4H-quinazolin-3-yl)-pyrrolidine-2,5-dione] cannot be ordered by melting point: 205 to 206 °C for the first, 203 to 210 °C for the second.

First: CC1=Nc2cc(Cl)cc(Cl)c2CN1C1CC(=O)NC1=O (stereo not drawn) [Example 15d, 3-(5,7-dichloro-2-methyl-4H-quinazolin-3-yl)-pyrrolidine-2,5-dione]
Second: CC1=Nc2c(Cl)cc(Cl)cc2CN1C1CC(=O)NC1=O (stereo not drawn) [Example 15w, 3-(6,8-dichloro-2-methyl-4H-quinazolin-3-yl)-pyrrolidine-2,5-dione]
The melting point of the first is higher: 199 to 201 °C for the first, 180 to 182 °C for the second.

First: CC1=Nc2c(Cl)ccc(Cl)c2CN1C1CC(=O)NC1=O (stereo not drawn) [Example 15f, 3-(5,8-dichloro-2-methyl-4H-quinazolin-3-yl)-pyrrolidine-2,5-dione]
Second: CC1=Nc2c(Cl)cccc2CN1C1CC(=O)NC1=O (stereo not drawn) [Example 15hh, 3-(8-chloro-2-methyl-4H-quinazolin-3-yl)-pyrrolidine-2,5-dione]
The melting point of the first is higher: 186 to 191 °C for the first, 176 to 178 °C for the second.

First: CCOc1cccc2c1CN(C1CC(=O)NC1=O)C(C)=N2 (stereo not drawn) [Example 15k, 3-(5-ethoxy-2-methyl-4H-quinazolin-3-yl)-pyrrolidine-2,5-dione]
Second: COc1cccc2c1CN(C1CC(=O)NC1=O)C(C)=N2 (stereo not drawn) [Example 15o, 3-(5-methoxy-2-methyl-4H-quinazolin-3-yl)-pyrrolidine-2,5-dione]
The melting point of the first is higher: 130 to 133 °C for the first, 122 °C for the second.

Compared with `CC1=Nc2cccc(OC(C)C)c2CN1C1CC(=O)NC1=O` (stereo not drawn) [Example 15m, 3-(5-isopropoxy-2-methyl-4H-quinazolin-3-yl)-pyrrolidine-2,5-dione], `CC1=Nc2cccc(C)c2CN1C1CC(=O)NC1=O` (stereo not drawn) [Example 15n, 3-(2,5-dimethyl-4H-quinazolin-3-yl)-pyrrolidine-2,5-dione] is higher in melting point: 116 to 119 °C for the first, 200 to 201 °C for the second.

First: CC1=Nc2cc3ccccc3cc2CN1C1CC(=O)NC1=O (stereo not drawn) [Example 15t, 3-(2-methyl-4H-benzo[g]quinazolin-3-yl)-pyrrolidine-2,5-dione]
Second: CC1=Nc2ccc(Cl)cc2CN1C1CC(=O)NC1=O (stereo not drawn) [Example 15y, 3-(6-chloro-2-methyl-4H-quinazolin-3-yl)-pyrrolidine-2,5-dione]
The melting point of the first is lower: 106 to 110 °C for the first, 195 to 203 °C for the second.

For `CC1=Nc2ccc([N+](=O)[O-])cc2CN1C1CC(=O)NC1=O` (stereo not drawn) [Example 15z, 3-(2-methyl-6-nitro-4H-quinazolin-3-yl)-pyrrolidine-2,5-dione], the melting point was 170 to 175 °C.

In the case of `CC1=Nc2cccc([N+](=O)[O-])c2CN1C1CC(=O)NC1=O` (stereo not drawn) [Example 15p, 3-(2-methyl-5-nitro-4H-quinazolin-3-yl)-pyrrolidine-2,5-dione], the melting point is reported as > 260 °C (dec.).

System: IL-10 production of LPS-activated monocytes
Experiment: Increase in IL-10 production of LPS-activated human monocytes (sandwich ELISA of culture supernatants)
Assay type: cell-based
Conditions: Monocyte; human CD14-positive monocytes, 1 h preincubation with test substance, 10 μg/ml LPS from E. coli, 24 hours
Protocol: (§1) Stimulation of human monocytes with lipopolysaccharide for secretion of IL-10 and IL-12:
(§2) Human monocytes were isolated from peripheral blood mononuclear cells (PBMC), which were obtained from heparinized whole blood by means of a Ficoll density gradient centrifugation. For this, the PBMC were incubated with a monoclonal antibody which is directed against the monocyte-specific surface molecule CD14 and to which superparamagnetic microbeads (Miltenyi Biotech, Bergisch Gladbach) are coupled. For positive selection of the labelled monocytes from the cell mixture of the PBMC, the entire cell suspension was applied to a column with a ferromagnetic carrier matrix and this was placed in a magnetic field. The cells loaded with microbeads were thereby bound to the carrier matrix, and non-labelled cells passed through the column and were discarded. After removing the matrix from the magnetic field, the antibody-laden cells were eluted by rinsing the now demagnetized column with buffer. The purity of this CD14-positive monocyte population obtained in this way is about 95-98%. These monocytes were incubated in a density of 10^6 cells/ml of culture medium (RPMI, supplemented with 10% foetal calf serum) with the test substances, dissolved in DMSO, at 37° C. and 5% CO2 for one hour. 10 μg/ml of LPS from E. coli were then added. After 24 hours, cell-free culture supernatants were taken and tested for the content of IL-10 and IL-12.
(§3) The concentration of IL-12 and IL-10 in the cell culture supernatants was determined by means of sandwich ELISAs using two anti-IL-12 and, respectively, IL-10 monoclonal antibodies (Biosource Europe, Fleurus, Belgium). A reference standard curve with human IL-10 and, respectively, IL-12 was included. The detection limit of the ELISAs was 15 pg/ml.

Compared with `O=C1CC(N2C=Nc3cc(F)cc(Cl)c3C2)C(=O)N1` (stereo not drawn) [Example 1, 3-(5-chloro-7-fluoro-4H-quinazolin-3-yl)-pyrrolidine-2,5-dione], `O=C1CC(N2C=Nc3cc(F)cc(F)c3C2)C(=O)N1` (stereo not drawn) [Example 4, 3-(5,7-difluoro-4H-quinazolin-3-yl)-pyrrolidine-2,5-dione] is 6.5-fold lower in EC200: 4 µg/mL for the first, 0.62 µg/mL for the second.

First: O=C1CC(N2C=Nc3cc(Cl)cc(F)c3C2)C(=O)N1 (stereo not drawn) [Example 2, 3-(7-chloro-5-fluoro-4H-quinazolin-3-yl)-pyrrolidine-2,5-dione]
Second: O=C1CC(N2C=Nc3cc(F)c(F)cc3C2)C(=O)N1 (stereo not drawn) [Example 8d, 3-(6,7-difluoro-4H-quinazolin-3-yl)-pyrrolidine-2,5-dione]
The EC200 of the first is lower: 1 µg/mL for the first, over 50 µg/mL for the second.

`COc1cccc2c1CN(C1CC(=O)NC1=O)C=N2` (stereo not drawn) [Example 12a, 3-(5-methoxy-4H-quinazolin-3-yl)-pyrrolidine-2,5-dione] gave an EC200 of over 50 µg/mL.

Same assay, conditions: human CD14-positive monocytes, 1 h preincubation with test substance, 10 μg/ml LPS from E. coli, 24 hours

In the case of `O=C1CC(N2C=Nc3cc4ccccc4cc3C2)C(=O)N1` (stereo not drawn) [Example 8c, 3-(4H-benzo[q]quinazolin-3-yl)-pyrrolidine-2,5-dione], the “Increase in IL-10 production EC200” value is reported as over 50000 ng/mL.

System: IL-12 production of LPS-activated monocytes
Experiment: Inhibition of IL-12 production of LPS-activated human monocytes (sandwich ELISA of culture supernatants)
Assay type: cell-based
Conditions: Monocyte; human CD14-positive monocytes, 1 h preincubation with test substance, 10 μg/ml LPS from E. coli, 24 hours
Protocol: as §1, §2, §3

Going from `O=C1CC(N2C=Nc3cc(F)cc(Cl)c3C2)C(=O)N1` (stereo not drawn) [Example 1, 3-(5-chloro-7-fluoro-4H-quinazolin-3-yl)-pyrrolidine-2,5-dione] to `O=C1CC(N2C=Nc3cc(F)cc(F)c3C2)C(=O)N1` (stereo not drawn) [Example 4, 3-(5,7-difluoro-4H-quinazolin-3-yl)-pyrrolidine-2,5-dione], the IC50 falls from 1.5 µg/mL (≈ 5.33 µM) to 0.107 µg/mL (≈ 0.403 µM) (14-fold).

Going from `O=C1CC(N2C=Nc3cc(Cl)cc(F)c3C2)C(=O)N1` (stereo not drawn) [Example 2, 3-(7-chloro-5-fluoro-4H-quinazolin-3-yl)-pyrrolidine-2,5-dione] to `O=C1CC(N2C=Nc3cc(F)c(F)cc3C2)C(=O)N1` (stereo not drawn) [Example 8d, 3-(6,7-difluoro-4H-quinazolin-3-yl)-pyrrolidine-2,5-dione], the IC50 falls from 1.4 µg/mL (≈ 4.97 µM) to 0.715 µg/mL (≈ 2.7 µM) (2-fold).

`COc1cccc2c1CN(C1CC(=O)NC1=O)C=N2` (stereo not drawn) [Example 12a, 3-(5-methoxy-4H-quinazolin-3-yl)-pyrrolidine-2,5-dione] gave an IC50 of 1.8 µg/mL (≈ 6.94 µM).

Same assay, conditions: human CD14-positive monocytes, 1 h preincubation with test substance, 10 μg/ml LPS from E. coli, 24 hours

For `O=C1CC(N2C=Nc3cc4ccccc4cc3C2)C(=O)N1` (stereo not drawn) [Example 8c, 3-(4H-benzo[q]quinazolin-3-yl)-pyrrolidine-2,5-dione], the “Inhibition of IL-12 production IC50” value was 4 µg/mL.
